Assay [1] deals with purified human Factor XIa (Homo sapiens (Human), UniProt P03951). In words: Factor XIa Assay. The format is biochemical. The settings on record: purified human Factor XIa 40 pM, substrate Z-Gly-Pro-Arg-AFC, pH 7.4; read-out: FXIa IC50. Here is the method: The effectiveness of a compound of the present invention as an inhibitor of Coagulation Factor XIa can be determined using a relevant purified serine protease, and an appropriate synthetic substrate. The rate of hydrolysis of the chromogenic or fluorogenic substrate by the relevant serine protease was measured both in the absence and presence of compounds of the present invention. Assays were conducted at room temperature or at 37° C. […] A decrease in the rate of fluorescence change in the presence of inhibitor is indicative of enzyme inhibition. Such methods are known to one skilled in the art. […]
Factor XIa determinations were made in 50 mM HEPES buffer at pH 7.4 containing 150 mM NaCl, 5 mM CaCl2, and 0.1% PEG 8000 (polyethylene glycol; JT Baker or Fisher Scientific). Determinations were made using purified human Factor XIa at a final concentration of 40 pM (Sekisui Diagnostics) and he synthetic substrate, Z-Gly-Pro-Arg-AFC, TFA salt (Sigma #C0980) at a concentration of 100 µM.
Activity assays were performed by diluting a stock solution of substrate at least tenfold to a final concentration ≦0.1 Km into a solution containing enzyme or enzyme equilibrated with inhibitor. Times required to achieve equilibration between enzyme and inhibitor were determined in control experiments. Initial velocities of product formation in the absence (Vo) or presence of inhibitor (Vi) were measured. Assuming competitive inhibition, and that unity is negligible compared Km/[S], [I]/e, and [I]/e (where [S], [I], and e respectively represent the total concentrations, of substrate, inhibitor and enzyme), the equilibrium constant (Ki) for dissociation of the inhibitor from the enzyme can be obtained from the dependence of Vo/Vi on [I] shown in the following equation.

The target in assay [2] is purified Human plasma kallikrein (Homo sapiens (Human), UniProt P03952). The assay is described as follows: Kallikrein Assay. The following applies: purified Human plasma kallikrein 0.5 nM, substrate Acetyl-K-P-R-AFC, pH 7.4; read-out: P. KLK IC50. The format is biochemical. Here is the method:
The effectiveness of a compound of the present invention as an inhibitor of Kallikrein can be determined using a relevant purified serine protease, and an appropriate synthetic substrate. The rate of hydrolysis of the chromogenic or fluorogenic substrate by the relevant serine protease was measured both in the absence and presence of compounds of the present invention. Assays were conducted at room temperature or at 37° C. […] A decrease in the rate of fluorescence change in the presence of inhibitor is indicative of enzyme inhibition. Such methods are known to one skilled in the art. The results of this assay are expressed as the inhibitory constant, Ki.
Kallikrein determinations were made in 50 mM HEPES buffer at pH 7.4 containing 150 mM NaCl, 5 mM CaCl2, and 0.1% PEG 8000 (polyethylene glycol; Fisher Scientific). Determinations were made using purified Human plasma kallikrein at a final concentration of 0.5 nM (Enzyme Research Laboratories) and the synthetic substrate, Acetyl-K-P-R-AFC (Sigma # C6608) at a concentration of […].
Activity assays were performed by diluting a stock solution of substrate at least tenfold to a final concentration ≦0.2 Km into a solution containing enzyme or enzyme equilibrated with inhibitor. Times required to achieve equilibration between enzyme and inhibitor were determined in control experiments. The reactions were performed under linear progress curve conditions and fluorescence increase measured at 405 Ex/510 Em nm. Values were converted to percent inhibition of the control reaction (after subtracting 100% Inhibition value). IC50 was determined by inflection point from a four parameter logistic curve fit. Ki was calculated using the Cheng Prusoff equation, Ki=IC50/(1+([S]/Km)).

Experimental findings from US9783530B2, “Factor Xla inhibitors” (Merck Sharp & Dohme Corp., priority 2014, dated 2017) are described below.

Usually IC50 stands for the point on the concentration scale where inhibition reaches its midpoint.

SMILES strings stand for the structures.

Chain of purified Human plasma kallikrein (P03952 391-638): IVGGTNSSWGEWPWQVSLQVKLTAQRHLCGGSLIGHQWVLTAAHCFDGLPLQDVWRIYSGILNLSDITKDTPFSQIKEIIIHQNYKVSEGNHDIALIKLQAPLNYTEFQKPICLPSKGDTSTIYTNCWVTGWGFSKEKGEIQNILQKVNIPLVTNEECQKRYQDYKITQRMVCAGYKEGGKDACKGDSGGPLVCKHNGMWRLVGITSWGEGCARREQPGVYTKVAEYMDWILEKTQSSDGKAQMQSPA
Chain of purified Human plasma kallikrein (P03952 20-390 partner): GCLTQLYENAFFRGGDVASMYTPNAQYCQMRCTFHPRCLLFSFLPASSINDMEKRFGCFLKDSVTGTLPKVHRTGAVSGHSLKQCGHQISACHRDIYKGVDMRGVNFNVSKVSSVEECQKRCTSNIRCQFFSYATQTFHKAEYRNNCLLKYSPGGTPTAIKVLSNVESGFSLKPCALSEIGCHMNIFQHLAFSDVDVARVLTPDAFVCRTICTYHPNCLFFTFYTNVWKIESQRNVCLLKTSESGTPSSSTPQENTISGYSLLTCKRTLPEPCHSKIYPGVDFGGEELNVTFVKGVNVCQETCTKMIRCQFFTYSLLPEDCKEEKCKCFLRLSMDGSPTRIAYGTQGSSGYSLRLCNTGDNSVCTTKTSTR
Chain of purified human Factor XIa (P03951 388-625): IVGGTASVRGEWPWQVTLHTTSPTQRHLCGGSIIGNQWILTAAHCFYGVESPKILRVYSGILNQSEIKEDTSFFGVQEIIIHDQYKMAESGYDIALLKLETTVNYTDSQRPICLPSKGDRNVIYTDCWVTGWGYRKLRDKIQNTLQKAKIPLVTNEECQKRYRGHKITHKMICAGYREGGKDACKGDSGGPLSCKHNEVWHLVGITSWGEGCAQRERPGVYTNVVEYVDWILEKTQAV
Chain of purified human Factor XIa (P03951 19-387 partner): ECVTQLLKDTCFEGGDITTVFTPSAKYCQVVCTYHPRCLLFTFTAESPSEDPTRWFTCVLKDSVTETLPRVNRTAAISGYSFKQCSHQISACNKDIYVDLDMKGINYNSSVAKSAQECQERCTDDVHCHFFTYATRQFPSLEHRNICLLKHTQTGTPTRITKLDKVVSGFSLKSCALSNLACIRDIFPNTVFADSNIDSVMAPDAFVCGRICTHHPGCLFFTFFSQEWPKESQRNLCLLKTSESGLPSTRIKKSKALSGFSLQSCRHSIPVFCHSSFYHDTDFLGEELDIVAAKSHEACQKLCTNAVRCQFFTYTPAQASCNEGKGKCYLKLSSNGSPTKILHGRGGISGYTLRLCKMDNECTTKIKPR

On to `COc1cc(C(Cc2ccccc2)C(=O)Nc2ccc(C(=O)O)cc2)[n+]([O-])cc1-c1cc(Cl)ccc1C#N` (single isomer, unassigned) [Example 24, 2-(1-((4-carboxyphenyl)amino)-1-oxo-3-phenyl-propan-2-yl)-5-(5-chloro-2-cyanophenyl)-4-methoxypyridine 1-oxide], for which the figures for the IC50 in assay [1] and in assay [2] were 0.29 nM and 0.7 nM, respectively.

For `N#Cc1ccc(Cl)c(F)c1-c1ccc(C(CC2CC2)C(=O)Nc2ccc(C(=O)O)cc2)[n+]([O-])c1` (single isomer, unassigned) [Example 30, 4-({2-[5-(3-chloro-6-cyano-2-fluorophenyl)-1-oxidopyridin-2-yl]-3-cyclopropylpropanoyl}amino)benzoic acid], the IC50 is 4.24 nM in assay [1] and 80.4 nM in assay [2].

On to `O=C(O)c1ccc(NC(=O)C(CC2CC2)c2ccc(-c3cc(Cl)ccc3-n3cnnn3)c[n+]2[O-])c(Cl)c1` (single isomer, unassigned) [Example 32, 3-chloro-4-[(2-{5-[5-chloro-2-(1H-tetrazol-1-yl)phenyl]-1-oxidopyridin-2-yl}-3-cyclopropylpropanoyl)amino]benzoic acid], for which the IC50 was 3.37 nM in assay [1] and 692 nM in assay [2].

As for `O=C(O)c1ccc(NC(=O)C(CC2CC2)c2ccc(-c3cc(Cl)ccc3-c3cnco3)c[n+]2[O-])cc1` (single isomer, unassigned) [Example 35, 4-[(2-{5-[5-chloro-2-(1,3-oxazol-5-yl)phenyl]-1-oxidopyridin-2-yl}-3-cyclopropylpropanoyl)amino]benzoic acid], the concentration for half-maximal inhibition (IC50) in assay [1] was 5.65 nM; in assay [2], 408 nM.

For `O=C(O)c1ccc(NC(=O)C(CC2CC2)c2ccc(-c3cc(Cl)ccc3OC(F)(F)F)c[n+]2[O-])cc1` (single isomer, unassigned) [Example 39, 4-[(2-{5-[5-chloro-2-(trifluoromethoxy)phenyl]-1-oxidopyridin-2-yl}-3-cyclopropylpropanoyl)amino]benzoic acid], the values for the IC50 in assay [1] and in assay [2] were 18.9 nM and 830 nM, respectively.

In the case of `O=C(O)c1ccc(NC(=O)C(CC2CC2)c2ccc(-c3cc(Cl)ccc3-n3cnnn3)c[n+]2[O-])cc1F` (single isomer, unassigned) [Example 44, 4-[(2-{5-[5-chloro-2-(1H-tetrazol-1-yl)phenyl]-1-oxidopyridin-2-yl}-3-cyclopropylpropanoyl)amino]-2-fluorobenzoic acid], the IC50 amounted to 18 nM in assay [1] and 3260 nM in assay [2].

For `O=C(O)c1ccc(NC(=O)C(CC2CC2)c2ccc(-c3cc(Cl)ccc3-n3cnnn3)c[n+]2[O-])cc1F` (single isomer, unassigned) [Example 45, 4-[(2-{5-[5-chloro-2-(1H-tetrazol-1-yl)phenyl]-1-oxidopyridin-2-yl}-3-cyclopropylpropanoyl)amino]-2-fluorobenzoic acid], the half-maximal inhibitory concentration (IC50) in assay [1] was determined as 0.07 nM; in assay [2], 17.6 nM.

Take `Cc1cc(C(=O)O)ccc1NC(=O)C(CC1CC1)c1ccc(-c2cc(Cl)ccc2-n2cnnn2)c[n+]1[O-]` (single isomer, unassigned) [Example 47, 4-[(2-{5-[5-chloro-2-(1H-tetrazol-1-yl)phenyl]-1-oxidopyridin-2-yl}-3-cyclopropylpropanoyl)amino]-3-methylbenzoic acid]: the IC50 in assay [1] worked out at 15.1 nM; in assay [2], 2350 nM.

Consider `Cc1cc(NC(=O)C(CC2CC2)c2ccc(-c3cc(Cl)ccc3-n3cnnn3)c[n+]2[O-])ccc1C(=O)O` (single isomer, unassigned) [Example 48, 4-[(2-{5-[5-chloro-2-(1H-tetrazol-1-yl)phenyl]-1-oxidopyridin-2-yl}-3-cyclopropylpropanoyl)amino]-2-methylbenzoic acid], for which the IC50 in assay [1] was 0.46 nM; in assay [2], 83.1 nM.

As to `O=C(O)c1ccc(NC(=O)C(CC2CC2)c2ccc(-c3cc(Cl)ccc3-n3ccnn3)c[n+]2[O-])cc1` (single isomer, unassigned) [Example 54, 4-[(2-{5-[5-chloro-2-(1H-1,2,3-triazol-1-yl)phenyl]-1-oxidopyridin-2-yl}-3-cyclopropylpropanoyl)amino]benzoic acid], the half-maximal inhibitory concentration (IC50) in assay [1] turned out to be 4.7 nM; in assay [2], 678 nM.

As to `O=C(O)c1ccc(NC(=O)[C@@H](Cc2ccccc2)c2ccc(-c3cc(Cl)ccc3-n3cnnn3)c[n+]2[O-])cc1` [Example 1, 4-{[(2S)-2-{5-[5-chloro-2-(1H-tetrazol-1-yl)phenyl]-1-oxidopyridin-2-yl}-3-phenylpropanoyl]amino} benzoic acid], the IC50 is 32.7 nM in assay [1] and 83.1 nM in assay [2].

In the case of `O=C(O)c1ccc(NC(=O)[C@H](Cc2ccccc2)c2ccc(-c3cc(Cl)ccc3-n3cnnn3)c[n+]2[O-])cc1` [Example 2, 4-{[(2R)-2-{5-[5-chloro-2-(1H-tetrazol-1-yl)phenyl]-1-oxidopyridin-2-yl}-3-phenylpropanoyl]amino} benzoic acid], the half-inhibitory concentration (IC50) worked out at 0.16 nM in assay [1] and 1.2 nM in assay [2].

With `O=C(O)c1ccc(NC(=O)[C@H](Cc2ccccc2)c2ccc(-c3c(F)ccc(Cl)c3F)c[n+]2[O-])cc1` [Example 4, 4-({(2R)-2-[5-(3-chloro-2,6-difluorophenyl)-1-oxidopyridin-2-yl]-3-phenylpropanoyl}amino) benzoic acid], the results for the IC50 in assay [1] and in assay [2] were 3.63 nM and 18.2 nM, respectively.

On to `O=C(O)c1ccc(NC(=O)[C@@H](Cc2ccc(F)cc2)c2ccc(-c3cc(Cl)ccc3-n3cnnn3)c[n+]2[O-])cc1` [Example 7, 4-{[(2S)-2-{5-[5-chloro-2-(1H-tetrazol-1-yl)phenyl]-1-oxidopyridin-2-yl}-3-(4-fluorophenyl)propanoyl]amino}benzoic acid], for which the results for the IC50 in assay [1] and in assay [2] were 14.2 nM and 67.1 nM, respectively.

On to `O=C(O)c1ccc(NC(=O)[C@H](Cc2ccc(F)cc2)c2ccc(-c3cc(Cl)ccc3-n3cnnn3)c[n+]2[O-])cc1` [Example 8, 4-{[(2R)-2-{5-[5-chloro-2-(1H-tetrazol-1-yl)phenyl]-1-oxidopyridin-2-yl}-3-(4-fluorophenyl)propanoyl]amino}benzoic acid], for which the IC50 in assay [1] came out at 0.26 nM; in assay [2], 3.4 nM.

In the case of `O=C(Cc1ccc(-c2c(F)ccc(Cl)c2F)c[n+]1[O-])Nc1ccc(C(=O)O)cc1` [Example 9, 4-({[5-(3-chloro-2,6-difluorophenyl)-1-oxidopyridin-2-yl]acetyl}amino) benzoic acid], the half-inhibitory concentration (IC50) in assay [1] amounted to 89.2 nM; in assay [2], 1570 nM.

`O=C(Cc1ccc(-c2cc(Cl)ccc2-n2cnnn2)c[n+]1[O-])Nc1ccc(C(=O)O)cc1` [Example 14, 4-[({5-[5-chloro-2-(1H-tetrazol-1-yl)phenyl]-1-oxidopyridin-2-yl}acetyl)amino] benzoic acid]: the 50% inhibitory concentration (IC50) in assay [1] came out at 18.5 nM; in assay [2], 1350 nM.

In the case of `Cc1cc(C(Cc2ccccc2)C(=O)Nc2ccc(C(=O)O)cc2)[n+]([O-])cc1-c1c(F)ccc(Cl)c1F` (stereo not shown) [Example 25, 2-(1-((4-carboxyphenyl)amino)-1-oxo-3-phenylpropan-2-yl)-5-(3-chloro-2,6-difluorophenyl)-4-methylpyridine 1-oxide], the IC50 in assay [1] turned out to be 8.32 nM; in assay [2], 42.3 nM.

In the case of `O=C(O)c1ccc(NC(=O)[C@H](CC2CC2)c2ccc(-c3cc(Cl)ccc3-n3cnnn3)c[n+]2[O-])cc1` [Example 27, 4-{[(2R)-2-{5-[5-chloro-2-(1H-tetrazol-1-yl)phenyl]-1-oxidopyridin-2-yl}-3-cyclopropylpropanoyl]amino}benzoic acid], the figures for the IC50 in assay [1] and in assay [2] were 0.14 nM and 23.8 nM, respectively.

For `O=C(O)c1ccc(NC(=O)[C@@H](CC2CC2)c2ccc(-c3cc(Cl)ccc3-n3cnnn3)c[n+]2[O-])cc1` [Example 28, 4-{[(2S)-2-{5-[5-chloro-2-(1H-tetrazol-1-yl)phenyl]-1-oxidopyridin-2-yl}-3-cyclopropylpropanoyl]amino}benzoic acid], the concentration for half-maximal inhibition (IC50) in assay [1] stood at 37 nM; in assay [2], 5820 nM.
